Results on three compounds are retold here after ChEMBL document CHEMBL1149975, “Synthesis of C2-symmetrical polyhydroxyazepanes as inhibitors of glycosidases” (Bioorg Med Chem Lett, 1996).

Each structure is given as a SMILES string.

The target in assay [1] is T1, Beta-galactosidase (Aspergillus niger, UniProt P29853).
T1 sequence (P29853 whole entry): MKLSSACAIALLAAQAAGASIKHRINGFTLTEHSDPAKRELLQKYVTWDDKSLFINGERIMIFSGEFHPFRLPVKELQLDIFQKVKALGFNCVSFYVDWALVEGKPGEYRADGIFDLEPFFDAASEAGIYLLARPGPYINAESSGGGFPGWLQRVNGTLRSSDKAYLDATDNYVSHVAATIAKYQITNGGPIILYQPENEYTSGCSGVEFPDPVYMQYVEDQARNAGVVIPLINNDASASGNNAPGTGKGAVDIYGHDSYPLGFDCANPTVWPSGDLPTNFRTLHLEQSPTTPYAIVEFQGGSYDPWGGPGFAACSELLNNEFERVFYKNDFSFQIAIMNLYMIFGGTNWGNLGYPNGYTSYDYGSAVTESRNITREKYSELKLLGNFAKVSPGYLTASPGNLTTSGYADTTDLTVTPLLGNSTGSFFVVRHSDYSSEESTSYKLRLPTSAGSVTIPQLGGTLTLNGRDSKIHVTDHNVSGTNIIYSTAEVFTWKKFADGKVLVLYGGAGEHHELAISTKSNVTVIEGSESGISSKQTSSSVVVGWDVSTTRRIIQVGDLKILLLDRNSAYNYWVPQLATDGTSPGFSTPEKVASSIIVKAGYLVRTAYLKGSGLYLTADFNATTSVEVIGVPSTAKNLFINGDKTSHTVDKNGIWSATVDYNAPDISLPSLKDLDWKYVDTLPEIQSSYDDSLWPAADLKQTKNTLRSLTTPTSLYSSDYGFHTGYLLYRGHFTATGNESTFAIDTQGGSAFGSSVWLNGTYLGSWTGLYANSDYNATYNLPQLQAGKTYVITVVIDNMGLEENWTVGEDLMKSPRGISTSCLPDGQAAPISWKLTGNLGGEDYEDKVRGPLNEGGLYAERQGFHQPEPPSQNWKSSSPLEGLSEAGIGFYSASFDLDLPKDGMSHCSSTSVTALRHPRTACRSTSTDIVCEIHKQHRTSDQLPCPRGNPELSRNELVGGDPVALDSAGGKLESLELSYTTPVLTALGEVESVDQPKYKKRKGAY
The assay can be described thus: Compound was tested for inhibition of beta-galactosidase from aspergillus niger; NI means no inhibition.

Assay [2] can be described thus: Compound was tested for inhibition of beta-N-acetylglucosaminidase from jack beans. Also on record: species or system Canavalia ensiformis.
A short description of assay [3]: Compound was tested for inhibition of alpha-mannosidase from jack beans; NI means no inhibition. Details: species or system Canavalia ensiformis.
Assay [4] concerns the target T1, Beta-galactosidase. The assay can be described thus: Compound was tested for inhibition of beta-galactosidase from aspergillus niger.
A short description of assay [5]: Compound was tested for inhibition of alpha-mannosidase from jack beans. Also on record: species or system Canavalia ensiformis.
Assay [6] relates to Canavalia ensiformis. As to the kind of experiment: Compound was tested for % inhibition of beta-N-acetylglucosaminidase from jack beans. The conditions noted are these: concentration not given here.
The subject of assay [7] is Canavalia ensiformis. The assay can be described thus: Compound was tested for % inhibition of alpha-mannosidase from jack beans. The conditions noted are these: concentration not given here.
The subject of assay [8] is beta-glucosidase (Prunus dulcis). As to the kind of experiment: Compound was tested for % inhibition of beta-glucosidase from sweet almonds. The note with it: concentration not given here.
Assay [9] has as its system alpha-galactosidase (Coffea arabica). The assay can be described thus: Compound was tested for inhibition of alpha-galactosidase from green coffee beans; NI means no inhibition.
Assay [10] has as its system Alpha-glucosidase (Saccharomyces cerevisiae). The assay can be described thus: Compound was tested for % inhibition of alpha-glucosidase from yeast. The conditions noted are these: concentration not given here.

On to `O[C@H]1[C@H](O)[C@H](O)CNC[C@H]1O`, for which the Ki result on Beta-galactosidase [1] was “No inhibition”; in assay [2], 4.6 µM; in [3], “No inhibition”.
In the case of `O[C@H]1[C@H](O)[C@@H](O)CNC[C@@H]1O`, the inhibitory constant (Ki) at Beta-galactosidase [4] stood at 6.5 µM; in assay [5], 25.7 µM; in [2], 22.7 µM.
For `O[C@H]1[C@H](O)[C@H](O)CN(Cc2ccccc2)C[C@H]1O`, the inhibition in the assay with Canavalia ensiformis [6] is 6%; with Canavalia ensiformis [7], 11%; in assay [8], 14%; in assay [10] it was 6%. For the same compound, the inhibition constant Ki result (in assay [9]; at Beta-galactosidase [1]) was “No inhibition” throughout.
